# Active and inactive are the calls of the source. The calls are words filed in the database; no cut-off is given here.
# B1: Acetylcholinesterase (Homo sapiens), P22303 (protein)
# chain: MRPPQCLLHTPSLASPLLLLLLWLLGGGVGAEGREDAELLVTVRGGRLRGIRLKTPGGPVSAFLGIPFAEPPMGPRRFLPPEPKQPWSGVVDATTFQSVCYQYVDTLYPGFEGTEMWNPNRELSEDCLYLNVWTPYPRPTSPTPVLVWIYGGGFYSGASSLDVYDGRFLVQAERTVLVSMNYRVGAFGFLALPGSREAPGNVGLLDQRLALQWVQENVAAFGGDPTSVTLFGESAGAASVGMHLLSPPSRGLFHRAVLQSGAPNGPWATVGMGEARRRATQLAHLVGCPPGGTGGNDTELVACLRTRPAQVLVNHEWHVLPQESVFRFSFVPVVDGDFLSDTPEALINAGDFHGLQVLVGVVKDEGSYFLVYGAPGFSKDNESLISRAEFLAGVRVGVPQVSDLAAEAVVLHYTDWLHPEDPARLREALSDVVGDHNVVCPVAQLAGRLAAQGARVYAYVFEHRASTLSWPLWMGVPHGYEIEFIFGIPLDPSRNYTAEEKIFAQRLMRYWANFARTGDPNEPRDPKAPQWPPYTAGAQQYVSLDLRPLEVRRGLRAQACAFWNRFLPKLLSATDTLDEAERQWKAEFHRWSSYMVHWKNQFDHYSKQDRCSDL
# Molecular target: T1, Acetylcholinesterase (Homo sapiens, UniProt P22303)
# Experiment: Inhibition of human AChE assessed as inhibitor dissociation constant for enzyme-inhibitor complex pre-incubated for 6 mins before ATCI substrate addition and measured after 12 mins by DTNB reagent dependent Ellman's method based Lineweaver-Burk plot analysis
row,Molecule,Ki
1,O=C(CNCc1cc(F)cc(F)c1)Nc1ccc2nc3n(c(=O)c2c1)CCC3,9.85 nM

# Molecular target: T1, Acetylcholinesterase
# Experiment: Inhibition of human AChE assessed as inhibitor dissociation constant for enzyme-substrate-inhibitor complex pre-incubated for 6 mins before ATCI substrate addition and measured after 12 mins by DTNB reagent dependent Ellman's method based Lineweaver-Burk plot analysis
row,Molecule,Ki
1,O=C(CNCc1cc(F)cc(F)c1)Nc1ccc2nc3n(c(=O)c2c1)CCC3,15.8 nM

# System: not listed separately
# Experiment: Metal chelating activity against Cu2+ ions assessed as reduction in intrinsic fluorescence of compound at 50 uM incubated for 30 mins using CuSO4 by fluorescence spectrophotometry
row,Molecule,Activity
1,O=C(CNCc1cc(F)cc(F)c1)Nc1ccc2nc3n(c(=O)c2c1)CCC3,Active

# System: not listed separately
# Experiment: Metal chelating activity against Fe2+ ions assessed as reduction in intrinsic fluorescence of compound at 50 uM incubated for 30 mins using FeSO4 by fluorescence spectrophotometry
row,Molecule,Activity
1,O=C(CNCc1cc(F)cc(F)c1)Nc1ccc2nc3n(c(=O)c2c1)CCC3,Active

# System: not listed separately
# Experiment: Metal chelating activity against Fe3+ ions assessed as reduction in intrinsic fluorescence of compound at 50 uM incubated for 30 mins using FeCl3 by fluorescence spectrophotometry
row,Molecule,Activity
1,O=C(CNCc1cc(F)cc(F)c1)Nc1ccc2nc3n(c(=O)c2c1)CCC3,Active

# System: not listed separately
# Experiment: Metal chelating activity against Zn2+ ions assessed as reduction in intrinsic fluorescence of compound at 50 uM incubated for 30 mins using ZnCl2 by fluorescence spectrophotometry
row,Molecule,Activity
1,O=C(CNCc1cc(F)cc(F)c1)Nc1ccc2nc3n(c(=O)c2c1)CCC3,inactive

# System: not listed separately
# Experiment: Metal chelating activity against Cu2+ ions assessed as compound-Cu2+ complex formation at 50 uM incubated for 30 mins using CuSO4 by UV-Visible spectrophotometry
row,Molecule,Activity
1,O=C(CNCc1cc(F)cc(F)c1)Nc1ccc2nc3n(c(=O)c2c1)CCC3,Active

# System: not listed separately
# Experiment: Metal chelating activity against Fe2+ ions assessed as compound-Fe2+ complex formation at 50 uM incubated for 30 mins using FeSO4 by UV-Visible spectrophotometry
row,Molecule,Activity
1,O=C(CNCc1cc(F)cc(F)c1)Nc1ccc2nc3n(c(=O)c2c1)CCC3,Active

# System: not listed separately
# Experiment: Metal chelating activity against Fe3+ ions assessed as compound-Fe3+ complex formation at 50 uM incubated for 30 mins using FeCl3 by UV-Visible spectrophotometry
row,Molecule,Activity
1,O=C(CNCc1cc(F)cc(F)c1)Nc1ccc2nc3n(c(=O)c2c1)CCC3,Active

# System: not listed separately
# Experiment: Metal chelating activity against Zn2+ ions assessed as compound-Zn2+ complex formation at 50 uM incubated for 30 mins using ZnCl2 by UV-Visible spectrophotometry
row,Molecule,Activity
1,O=C(CNCc1cc(F)cc(F)c1)Nc1ccc2nc3n(c(=O)c2c1)CCC3,inactive

# System: not listed separately
# Experiment: Metal chelating activity against Cu2+ ions assessed as 1:1 stoichiometry compound-Cu2+ complex formation at 50 uM incubated for 30 mins using CuSO4 by UV-Visible spectrophotometry
row,Molecule,Activity
1,O=C(CNCc1cc(F)cc(F)c1)Nc1ccc2nc3n(c(=O)c2c1)CCC3,Active

# Molecular target: T1, Acetylcholinesterase
# Description: Inhibition of human AChE pre-incubated for 6 mins before ATCI substrate addition and measured after 12 mins by DTNB reagent dependent UV-Vis spectrophotometry based Ellman's method
row,Molecule,IC50
1,O=C(CNCCCc1ccccc1)Nc1ccc2nc3n(c(=O)c2c1)CCC3,4.09 nM
2,Cc1ccccc1CNCC(=O)Nc1ccc2nc3n(c(=O)c2c1)CCC3,119 nM
3,CCCCNCC(=O)Nc1ccc2nc3n(c(=O)c2c1)CCC3,21.2 nM
4,O=C(CNCc1ccccc1F)Nc1ccc2nc3n(c(=O)c2c1)CCC3,528 nM
5,O=C(CNCc1ccccc1[N+](=O)[O-])Nc1ccc2nc3n(c(=O)c2c1)CCC3,30.7 nM
6,C=CCNCC(=O)Nc1ccc2nc3n(c(=O)c2c1)CCC3,66.6 nM
7,CCCCCCCCCCNCC(=O)Nc1ccc2nc3n(c(=O)c2c1)CCC3,24.1 nM
8,C#CCNCC(=O)Nc1ccc2nc3n(c(=O)c2c1)CCC3,46.4 nM
9,CCCCCCCCNCC(=O)Nc1ccc2nc3n(c(=O)c2c1)CCC3,10.6 nM
10,CC(C)=CCNCC(=O)Nc1ccc2nc3n(c(=O)c2c1)CCC3,25.9 nM
11,CCCCCCCCCCCCCCCCNCC(=O)Nc1ccc2nc3n(c(=O)c2c1)CCC3,5.31 nM
12,CCNCC(=O)Nc1ccc2nc3n(c(=O)c2c1)CCC3,557 nM
13,O=c1c2ccccc2nc2n1CCC2 [DEOXYVASICINONE],62500 nM
14,O=C(CNCc1ccccc1)Nc1ccc2nc3n(c(=O)c2c1)CCC3,231 nM
15,CCCCCCCCCCCCNCC(=O)Nc1ccc2nc3n(c(=O)c2c1)CCC3,36.7 nM
16,CCCCCCNCC(=O)Nc1ccc2nc3n(c(=O)c2c1)CCC3,25.3 nM
17,C=CCCNCC(=O)Nc1ccc2nc3n(c(=O)c2c1)CCC3,13.3 nM
18,O=C(CNCc1cc(F)cc(F)c1)Nc1ccc2nc3n(c(=O)c2c1)CCC3,7.61 nM
19,N#Cc1ccccc1CNCC(=O)Nc1ccc2nc3n(c(=O)c2c1)CCC3,16.8 nM
20,CCCNCC(=O)Nc1ccc2nc3n(c(=O)c2c1)CCC3,310 nM

# Molecular target: Cholinesterase (Homo sapiens, UniProt P06276)
# Sequence (P06276 whole entry): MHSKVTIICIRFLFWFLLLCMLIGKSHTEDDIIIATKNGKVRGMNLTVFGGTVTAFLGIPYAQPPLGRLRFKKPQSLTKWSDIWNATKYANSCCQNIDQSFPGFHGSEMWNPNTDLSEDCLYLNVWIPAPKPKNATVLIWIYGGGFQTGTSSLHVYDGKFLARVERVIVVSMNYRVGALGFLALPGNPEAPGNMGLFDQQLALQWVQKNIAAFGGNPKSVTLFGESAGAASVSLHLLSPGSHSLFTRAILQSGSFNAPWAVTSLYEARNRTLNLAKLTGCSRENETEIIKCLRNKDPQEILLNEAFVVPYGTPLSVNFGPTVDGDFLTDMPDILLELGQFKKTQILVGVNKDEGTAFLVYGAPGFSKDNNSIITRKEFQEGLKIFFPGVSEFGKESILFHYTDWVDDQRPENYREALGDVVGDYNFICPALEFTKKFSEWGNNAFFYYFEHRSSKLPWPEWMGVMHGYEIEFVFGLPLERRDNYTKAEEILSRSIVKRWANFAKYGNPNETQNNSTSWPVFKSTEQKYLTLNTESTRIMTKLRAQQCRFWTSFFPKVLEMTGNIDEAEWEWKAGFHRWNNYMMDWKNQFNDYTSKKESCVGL
# Description: Inhibition of human BChE pre-incubated for 6 mins before ATCI substrate addition and measured after 12 mins by DTNB reagent dependent UV-Vis spectrophotometry based Ellman's method
row,Molecule,IC50
1,O=C(CNCCCc1ccccc1)Nc1ccc2nc3n(c(=O)c2c1)CCC3,20.7 nM
2,Cc1ccccc1CNCC(=O)Nc1ccc2nc3n(c(=O)c2c1)CCC3,107 nM
3,CCCCNCC(=O)Nc1ccc2nc3n(c(=O)c2c1)CCC3,107 nM
4,O=C(CNCc1ccccc1F)Nc1ccc2nc3n(c(=O)c2c1)CCC3,108 nM
5,O=C(CNCc1ccccc1[N+](=O)[O-])Nc1ccc2nc3n(c(=O)c2c1)CCC3,103 nM
6,C=CCNCC(=O)Nc1ccc2nc3n(c(=O)c2c1)CCC3,16.6 nM
7,CCCCCCCCCCNCC(=O)Nc1ccc2nc3n(c(=O)c2c1)CCC3,37.2 nM
8,C#CCNCC(=O)Nc1ccc2nc3n(c(=O)c2c1)CCC3,12.4 nM
9,CCCCCCCCNCC(=O)Nc1ccc2nc3n(c(=O)c2c1)CCC3,45.7 nM
10,CC(C)=CCNCC(=O)Nc1ccc2nc3n(c(=O)c2c1)CCC3,16.3 nM
11,CCCCCCCCCCCCCCCCNCC(=O)Nc1ccc2nc3n(c(=O)c2c1)CCC3,4.35 nM
12,CCNCC(=O)Nc1ccc2nc3n(c(=O)c2c1)CCC3,1000 nM
13,O=c1c2ccccc2nc2n1CCC2 [DEOXYVASICINONE],45100 nM
14,O=C(CNCc1ccccc1)Nc1ccc2nc3n(c(=O)c2c1)CCC3,145 nM
15,CCCCCCCCCCCCNCC(=O)Nc1ccc2nc3n(c(=O)c2c1)CCC3,26.8 nM
16,CCCCCCNCC(=O)Nc1ccc2nc3n(c(=O)c2c1)CCC3,10.5 nM
17,C=CCCNCC(=O)Nc1ccc2nc3n(c(=O)c2c1)CCC3,81.5 nM
18,O=C(CNCc1cc(F)cc(F)c1)Nc1ccc2nc3n(c(=O)c2c1)CCC3,2.35 nM
19,N#Cc1ccccc1CNCC(=O)Nc1ccc2nc3n(c(=O)c2c1)CCC3,29.9 nM
20,CCCNCC(=O)Nc1ccc2nc3n(c(=O)c2c1)CCC3,1190 nM

# Compound: O=C(CNCc1cc(F)cc(F)c1)Nc1ccc2nc3n(c(=O)c2c1)CCC3
# Experiment: Inhibition of human AChE assessed as ATCI substrate Km at 1 nM pre-incubated for 6 mins before ATCI substrate addition and measured after 12 mins by DTNB reagent dependent Ellman's method based Michaelis-Menten kinetics analysis (reference value: […] mM)
row,Molecule,Km
1,B1,329 µM

# Compound: O=C(CNCc1cc(F)cc(F)c1)Nc1ccc2nc3n(c(=O)c2c1)CCC3
# Experiment: Inhibition of human AChE assessed as ATCI substrate Km at 5 nM pre-incubated for 6 mins before ATCI substrate addition and measured after 12 mins by DTNB reagent dependent Ellman's method based Michaelis-Menten kinetics analysis (reference value: […] mM)
row,Molecule,Km
1,B1,369 µM

# Compound: O=C(CNCc1cc(F)cc(F)c1)Nc1ccc2nc3n(c(=O)c2c1)CCC3
# Experiment: Inhibition of human AChE assessed as ATCI substrate Km at 10 nM pre-incubated for 6 mins before ATCI substrate addition and measured after 12 mins by DTNB reagent dependent Ellman's method based Michaelis-Menten kinetics analysis (reference value: […] mM)
row,Molecule,Km
1,B1,434 µM

# Compound: O=C(CNCc1cc(F)cc(F)c1)Nc1ccc2nc3n(c(=O)c2c1)CCC3
# Experiment: Inhibition of human AChE assessed as ATCI substrate Vmax at 1 nM pre-incubated for 6 mins before ATCI substrate addition and measured after 12 mins by DTNB reagent dependent Ellman's method based Michaelis-Menten kinetics analysis (reference value: […] deltaA/min)
row,Molecule,Vmax
1,B1,0.212 deltaA/min

# Compound: O=C(CNCc1cc(F)cc(F)c1)Nc1ccc2nc3n(c(=O)c2c1)CCC3
# Experiment: Inhibition of human AChE assessed as ATCI substrate Vmax at 5 nM pre-incubated for 6 mins before ATCI substrate addition and measured after 12 mins by DTNB reagent dependent Ellman's method based Michaelis-Menten kinetics analysis (reference value: […] deltaA/min)
row,Molecule,Vmax
1,B1,0.19 deltaA/min

# Compound: O=C(CNCc1cc(F)cc(F)c1)Nc1ccc2nc3n(c(=O)c2c1)CCC3
# Experiment: Inhibition of human AChE assessed as ATCI substrate Vmax at 10 nM pre-incubated for 6 mins before ATCI substrate addition and measured after 12 mins by DTNB reagent dependent Ellman's method based Michaelis-Menten kinetics analysis (reference value: […] deltaA/min)
row,Molecule,Vmax
1,B1,0.152 deltaA/min

# Reference: ChEMBL document CHEMBL4190343, “Novel deoxyvasicinone derivatives as potent multitarget-directed ligands for the treatment of Alzheimer's disease: Design, synthesis, and biological evaluation” (Eur J Med Chem, 2017)
